# Data as given in publication PMC6862080, “Blood Compatibility—An Important but Often Forgotten Aspect of the Characterization of Antimicrobial Peptides for Clinical Application” (International Journal of Molecular Sciences, 2019).
# Where two headings read alike, the source gives them in different places. Peptide text beside a SMILES is read from it. * marks the point of attachment. Myristoyl = CCCCCCCCCCCCCC(=O)*
# How the values were obtained:
# E. coli (ATCC 11303) = experiment: microbe, parasite or virus in culture; type: cell-based; conditions: for Minimal Inhibitory Concentration, E. coli, PBS: ATCC 11303, pH 7.4; for MIC: Escherichia coli
# platelets [1] = experiment: Platelet activation, platelet count in heparin anticoagulated PRP; type: cell-based, human; conditions: 128 μg/mL, 2 h, 37 °C, Sysmex analyzer, n = 3
# Description: (§1) Since it was observed that some AMPs are able to activate the plasmatic coagulation system of heparinized and citrate anticoagulated blood, the influence of this peptides on platelets was investigated. For this purpose, fresh heparinized and citrated blood were collected from three donors. The blood was centrifuged at 500 g for 5 min and platelet rich plasma (PRP) was obtained. The PRP was incubated at 37 °C for 2 h with 128 μg/mL AMP, PMB, and LL-37. PRP without any additives served as the control. After incubation, the platelet number was determined by a Sysmex Automated Hematology Analyzer KX-21-N (Kobe, Japan). In addition, the PRP samples were prepared for SEM to visualize the morphology of the thrombocytes. After incubation, 10 μL PRP were diluted with 990 μL PBS (0.01 M) and filtered through a 0.2 μm membrane (Membrane Filter Isopore 0.2 μm, Merck, Darmstadt, Germany). The platelets were retained on the membrane, washed with 1 mL PBS, and fixed with 1 mL glutaraldehyde solution (2.5% glutaraldehyde in physiological saline solution). After an incubation time of 60 min, the samples were dehydrated using a series of ethanol (30%, 50%, 60%, 70%, 80%, 90%, and 100%). Afterwards the samples were dried overnight at RT, sputtered with gold and visualized with a scanning electron microscope (FLEXSem 1000, Hitachi, Japan).
# plasmatic coagulation [2] = experiment: Clotting batch test in citrate plasma; type: biochemical, human; as to Clotting of citrate plasma, Peptide Concentration 128 μg/mL: key: −: no clotting observed, no D-dimers and normal fibrinogen level; +: clotting observed, high D-dimer level, no detectable fibrinogen serum level; as to Clotting of citrate plasma, Peptide Concentration 256 μg/mL: key: −: no clotting observed, no D-dimers and normal fibrinogen level; +: clotting observed, high D-dimer level, no detectable fibrinogen serum level; as to Clotting of citrate plasma, Peptide Concentration 32 μg/mL: key: −: no clotting observed, no D-dimers and normal fibrinogen level; +: clotting observed, high D-dimer level, no detectable fibrinogen serum level; as to Clotting of citrate plasma, Peptide Concentration 8 μg/mL: key: −: no clotting observed, no D-dimers and normal fibrinogen level; +: clotting observed, high D-dimer level, no detectable fibrinogen serum level
# Description: Since the acylated LF11-322 peptides cause plasmatic coagulation of citrate anticoagulated plasma, separate clotting experiments were performed with this peptide group. The aim was to check whether the coagulation activation is dependent on the AMP concentration and on the acyl chain length. […] Plasma without additives served as the negative control, whereas plasma spiked with CaCl2/MgCl2 (500/250 mM) solution to restore the physiological calcium and magnesium level in plasma was used as the positive control. Incubation was performed at 37 °C for 60 min. […] In order to ensure that the measured turbidity of the plasma is caused by fibrin formation, the fibrinogen and D-Dimer concentrations were additionally determined. During plasmatic clotting, the fibrinogen level decreases and the D-Dimer level in serum increases. Both were analyzed on a Sysmex CA560 with the corresponding reagents (Siemens Healthineers, Erlangen, Germany).
# platelets [3] = experiment: Platelet activation, platelet count in citrate anticoagulated PRP; type: cell-based, human; conditions: 128 μg/mL, 2 h, 37 °C, Sysmex analyzer, n = 3
# Description: as §1
# platelets [4] = experiment: SEM imaging of platelet morphology in PRP; type: cell-based, human; conditions: 128 μg/mL, 2 h, 37 °C
# Description: as §1
# erythrocyte membranes [5] = experiment: Hemolysis in whole blood (Kahn method); type: cell-based, human
# Description: (§2) Hemolysis was tested with fresh citrate anticoagulated blood from healthy volunteers as well as with blood cells which were suspended in phosphate buffered saline (10 mM pH 7.4). Afterwards, 100 μL AMP solution was added to 500 μL blood to finally achieve AMP concentrations of 8, 32, and 128 μg/mL. As the negative and positive control, 100 μL PBS buffer and 100 μL 12% Triton-X buffer was added to 500 μL blood, respectively. After incubation on an orbital shaker for 60 min at 37 °C, the cells were removed by centrifugation and 100 μL of the supernatant were transferred to a 96 well microplate for hemolysis measurement. The hemolysis was calculated from the extinction at the wavelengths 562, 578, and 598 nm with a Synergy 2 microplate reader (BioTek, Winooski, VT, USA) according to the method published by Kahn.
# human leukocytes = experiment: Cytotoxicity on leukocytes in whole blood, flow cytometry (7-AAD); type: cell-based; conditions: 128 μg/mL, n = 3
# Description: The measurement of the membrane destabilization of leukocytes by AMPs was carried out by flow cytometry. […] Whole blood without AMPs or antibiotics was used as a control. After incubation, the proportion of apoptotic and dead cells was determined by flow cytometry. To achieve this, blood samples were diluted 1:100 with 0.01 M phosphate buffered saline and centrifuged at 300 g for 10 min. The supernatant was removed, and cells were stained with 10 μL CD45 pacific blue (leukocyte marker; Beckman coulter, Brea, CA) and 10 μL 7-AAD (a marker for dead cells; Sigma-Aldrich, Steinheim, Germany) for 15 min at room temperature in the dark. After incubation, 1.8 mL lysis buffer (1:10 dilution in distilled water) was added, mixed, and incubated for 10 min at room temperature in the dark. This was followed by two washing steps (2300 g, 5 min, room temperature) and the cells were resuspended in a final volume of 200 μL 0.01 M PBS for measurement. Flow cytometry was performed using a Gallios flow cytometer (Beckman Coulter, Brea, CA, USA) equipped with 405 nm, 488 nm, and 638 nm lasers and the Kaluza Analysis Software (Beckman Coulter, Brea, CA, USA), which was used for measurement and data analysis. Blood cells which were incubated in 70% methanol before staining served as the positive control and blood cells without any additives were used as the negative control.
# S. aureus (ATCC 12600) = experiment: microbe, parasite or virus in culture; type: cell-based; conditions: for Minimal Inhibitory Concentration, S. aureus, PBS: ATCC 12600, pH 7.4; for MIC: Staphylococcus aureus
# erythrocyte membranes [6] = experiment: Hemolysis in RBC suspended in PBS (Kahn method); type: cell-based, human
# Description: as §2
# [7] = system: all species of Enterobacteriaceae and Staphylococcus; conditions: against all species of Enterobacteriaceae and Staphylococcus; cited from earlier work
# Description: It is noticeable that the MIC decreases with increasing acylation length of the peptide (Table 1). The antimicrobial effect of the LF11-322 peptides against E. coli and S. aureus decreased when the MIC was tested in 4% HSA solution. This is probably due to the partial binding of AMPs to albumin.
# plasmatic coagulation [8] = experiment: Activation of the clotting cascade in heparinized plasma; conditions: heparinized (0.5 IU/mL) plasma, 128 μg/mL, 37 °C, 120 min, turbidity at 600 nm
# Description: (§3) Plasma spiked with MES buffer without AMP was used as the negative control. […] Samples were incubated at 37 °C for 120 min. Coagulation was determined by turbidity measurement at 600 nm using a well plate reader.
# plasmatic coagulation [9] = experiment: Activation of the clotting cascade in citrated plasma; conditions: citrated (17 mM) plasma, 128 μg/mL, 37 °C, 120 min, turbidity at 600 nm
# Description: as §3
# [10] = citrate plasma, 37 °C, 60 min, turbidity 600 nm, fibrinogen and D-Dimer
molecule,measurement,setting,value
CCCCCCCCCCCCCC(=O)N1CCC[C@H]1C(=O)N[C@@H](Cc1ccccc1)C(=O)N[C@@H](Cc1c[nH]c2ccccc12)C(=O)N[C@@H](CCCNC(=N)N)C(=O)N[C@H](C(=O)N[C@@H](CCCNC(=N)N)C(=O)N[C@H](C(=O)N[C@@H](CCCNC(=N)N)C(=O)N[C@@H](CCCNC(=N)N)C(N)=O)[C@@H](C)CC)[C@@H](C)CC [LF11-322-C14] (Myristoyl-PFWRIRIRR-NH2),"Minimal Inhibitory Concentration, E. coli, PBS",E. coli (ATCC 11303),64 µg/mL
same,Platelet count in heparinized PRP vs control (in words),platelets [1],no significant difference in platelet count
same,Peptide concentration that triggers clotting of citrate plasma,plasmatic coagulation [2],≥ 32 µg/mL
same,Platelet count in citrate anticoagulated PRP vs control (in words),platelets [3],significantly reduce the platelet count
same,"Platelet morphology by SEM, citrate anticoagulated PRP (in words)",platelets [4],hardly any intact platelets left
same,"Free Hemoglobin, BLOOD, 8 μg/mL",erythrocyte membranes [5],2.9 ± 3.4 mg/dL
same,"Free Hemoglobin, BLOOD, 32 μg/mL",erythrocyte membranes [5],5.4 ± 3.2 mg/dL
same,"Free Hemoglobin, BLOOD, 128 μg/mL",erythrocyte membranes [5],2.9 ± 4.2 mg/dL
same,Percentage of dead leukocytes,"human leukocytes; citrate anticoagulated whole blood, 37 °C, 120 min / 60 min, CD45, flow cytometry",21 ± 16%
same,"Minimal Inhibitory Concentration, S. aureus, PBS",S. aureus (ATCC 12600),8 µg/mL
same,"Free Hemoglobin, RBC in PBS, 8 μg/mL",erythrocyte membranes [6]; pH 7.4,12.9 ± 1.2 mg/dL
same,"Free Hemoglobin, RBC in PBS, 32 μg/mL",erythrocyte membranes [6]; pH 7.4,31.8 ± 3.14 mg/dL
"O=C(O)c1cn(C2CC2)c2cc(N3CCNCC3)c(F)cc2c1=O [Ciprofloxacin, reference compound]",MIC90,[7],< 1 µg/mL
same,MIC,"E. coli (ATCC 11303); ATCC11303, pH 7.4, read-out: Minimal Inhibitory Concentration, E. coli, PBS",< 0.0625 µg/mL
same,MIC,"E. coli (ATCC 11303); ATCC11303, read-out: Minimal Inhibitory Concentration, E. coli, PBS + heparin",< 0.0625 µg/mL
same,MIC,"S. aureus (ATCC 12600); ATCC12600, pH 7.4, read-out: Minimal Inhibitory Concentration, S. aureus, PBS",< 0.0625 µg/mL
same,MIC,"S. aureus (ATCC 12600); ATCC12600, read-out: Minimal Inhibitory Concentration, S. aureus, PBS + heparin",< 0.0625 µg/mL
"CC[C@H](C)[C@H](NC(=O)[C@H](CCCCN)NC(=O)[C@H](CCC(=O)O)NC(=O)[C@H](CCCCN)NC(=O)[C@H](CO)NC(=O)[C@H](CCCCN)NC(=O)[C@H](CCCNC(=N)N)NC(=O)[C@H](Cc1ccccc1)NC(=O)[C@H](Cc1ccccc1)NC(=O)[C@H](CC(=O)O)NC(=O)CNC(=O)[C@H](CC(C)C)NC(=O)[C@@H](N)CC(C)C)C(=O)NCC(=O)N[C@@H](CCCCN)C(=O)N[C@@H](CCC(=O)O)C(=O)N[C@@H](Cc1ccccc1)C(=O)N[C@@H](CCCCN)C(=O)N[C@@H](CCCNC(=N)N)C(=O)N[C@H](C(=O)N[C@H](C(=O)N[C@@H](CCC(N)=O)C(=O)N[C@@H](CCCNC(=N)N)C(=O)N[C@H](C(=O)N[C@@H](CCCCN)C(=O)N[C@@H](CC(=O)O)C(=O)N[C@@H](Cc1ccccc1)C(=O)N[C@@H](CC(C)C)C(=O)N[C@@H](CCCNC(=N)N)C(=O)N[C@@H](CC(N)=O)C(=O)N[C@@H](CC(C)C)C(=O)N[C@H](C(=O)N1CCC[C@H]1C(=O)N[C@@H](CCCNC(=N)N)C(=O)N[C@H](C(=O)N[C@@H](CCC(=O)O)C(=O)N[C@@H](CO)C(=O)O)[C@@H](C)O)C(C)C)[C@@H](C)CC)C(C)C)[C@@H](C)CC [LL-37, reference compound]","Plasma clot, Heparin Plasma",plasmatic coagulation [8],−
same,"Clotting of citrate plasma, Peptide Concentration 8 μg/mL",plasmatic coagulation [2]; [10],−
same,"Clotting of citrate plasma, Peptide Concentration 32 μg/mL",plasmatic coagulation [2]; [10],−
same,"Clotting of citrate plasma, Peptide Concentration 128 μg/mL",plasmatic coagulation [2]; [10],−
same,"Clotting of citrate plasma, Peptide Concentration 256 μg/mL",plasmatic coagulation [2]; [10],−
same,"Free Hemoglobin, BLOOD, 8 μg/mL","erythrocyte membranes [5]; citrate anticoagulated whole blood, peptide conc. 8 μg/mL, 60 min 37 °C, Kahn method, n = 3, control 3.7 ± 1.9",1.1 ± 0.7 mg/dL
same,"Free Hemoglobin, BLOOD, 32 μg/mL","erythrocyte membranes [5]; citrate anticoagulated whole blood, peptide conc. 32 μg/mL, 60 min 37 °C, Kahn method, n = 3, control 3.7 ± 1.9",9.4 ± 13.4 mg/dL
same,"Free Hemoglobin, BLOOD, 128 μg/mL","erythrocyte membranes [5]; citrate anticoagulated whole blood, peptide conc. 128 μg/mL, 60 min 37 °C, Kahn method, n = 3, control 3.7 ± 1.9",2.6 ± 3.7 mg/dL
same,"Plasma clot, Citrated Plasma",plasmatic coagulation [9],−
same,"Free Hemoglobin, RBC in PBS, 128 μg/mL","erythrocyte membranes [6]; blood cells suspended in PBS 10 mM pH 7.4, highest peptide conc., 60 min 37 °C, Kahn method, n = 3, control 8.5 ± 4.7",68.4 ± 15.0 mg/dL
same,"Free Hemoglobin, RBC in PBS, 8 μg/mL","erythrocyte membranes [6]; blood cells suspended in PBS 10 mM pH 7.4, peptide conc. 8 μg/mL, 60 min 37 °C, Kahn method, n = 3, control 8.5 ± 4.7",2.4 ± 3.6 mg/dL
same,"Free Hemoglobin, RBC in PBS, 32 μg/mL","erythrocyte membranes [6]; blood cells suspended in PBS 10 mM pH 7.4, peptide conc. 32 μg/mL, 60 min 37 °C, Kahn method, n = 3, control 8.5 ± 4.7",44.8 ± 17.7 mg/dL
H-PFWRIRIRR-NH2 [LF11-322-NH2],"Minimal Inhibitory Concentration, E. coli, PBS",E. coli (ATCC 11303),4 µg/mL
same,"Platelet morphology by SEM, citrate anticoagulated PRP (in words)",platelets [4],strongly change their shape
same,"Free Hemoglobin, BLOOD, 8 μg/mL",erythrocyte membranes [5],5.0 ± 5.3 mg/dL
same,"Free Hemoglobin, BLOOD, 32 μg/mL",erythrocyte membranes [5],5.9 ± 4.4 mg/dL
same,"Free Hemoglobin, BLOOD, 128 μg/mL",erythrocyte membranes [5],2.6 ± 3.7 mg/dL
same,Cytotoxic effect on leukocytes in whole blood (in words),"human leukocytes; whole blood, flow cytometry",no cytotoxic properties on leukocytes
same,"Minimal Inhibitory Concentration, S. aureus, PBS",S. aureus (ATCC 12600),4 µg/mL
same,"Free Hemoglobin, RBC in PBS, 8 μg/mL",erythrocyte membranes [6]; pH 7.4,10.4 ± 2.4 mg/dL
same,"Free Hemoglobin, RBC in PBS, 32 μg/mL",erythrocyte membranes [6]; pH 7.4,14.2 ± 3.5 mg/dL
